Results taken from patent US6573275B1, “Bicyclic amines” (Syngenta Limited, priority 1995, dated 2003).

Tested on: peach aphid (Myzus persicae)
Assay: Insecticidal test against peach aphid, infested Chinese cabbage leaves sprayed
Type: in vivo
Conditions: peach aphid (Myzus persicae) on Chinese cabbage leaves, sprayed with 500 ppm composition unless otherwise stated, mortality assessed after 3 days
Method in brief: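 Aphid-infested Chinese cabbage leaves were sprayed with compound at 500 ppm unless otherwise stated, formulated in acetone/ethanol diluted with water containing 0.05% Synperonic NP8. Mortality was assessed after 3 days.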

SMILES | Score (grading of mortality)
N#CC1(c2cncc(Cl)c2)CC2CCC(C1)N2c1c(F)c(F)c(F)c(F)c1F (stereo not drawn) [Compound 151, exo-3-(5-chloropyrid-3-yl)-endo-3-cyano-8-pentafluorophenyl-8-azabicyclo[3.2.1]octane] | A (A indicates 80-100% mortality)
N#CC1(c2cncc(Cl)c2)CC2CCC(C1)N2c1cc(Cl)ncn1 (stereo not shown) [Compound 152] | A (A indicates 80-100% mortality)
CC(=O)Nc1nc(CN2C3CCC2CC(C#N)(c2cncc(Cl)c2)C3)cs1 (stereo not shown) [Compound 153] | A (A indicates 80-100% mortality)
N#CC1(c2cncc(Cl)c2)CC2CCC(C1)N2C(=O)Nc1ccc(F)c(Cl)c1 (stereo not shown) [Compound 154] | B (B indicates 40-79% mortality)
N#CC1(c2cncc(Cl)c2)CC2CCC(C1)N2c1cncc(Cl)c1 (stereo not shown) [Compound 155] | A (A indicates 80-100% mortality)
N#CC1(c2cncc(Cl)c2)CC2CCC(C1)N2C(=O)c1cnccc1C(F)(F)F (stereo not shown) [Compound 157] | C (C indicates less than 40% mortality)
N#CC1(c2cncc(Cl)c2)CC2CCC(C1)N2Cc1nnsc1Cl (stereo not drawn) [Compound 158, exo-3-(5-chloropyrid-3-yl)-endo-3-cyano-8-((5-chloro-1,2,3-thiadiazol-4-yl)methyl)-8-azabicyclo[3.2.1]octane] | A (A indicates 80-100% mortality)
CC(C=O)(c1ccccc1)N1C2CCC1CC(C#N)(c1cncc(Cl)c1)C2 (stereo not drawn) [Compound 159, exo-3-(5-chloropyrid-3-yl)-endo-3-cyano-8-(2-phenyl-3-oxo-prop-2-yl)-8-azabicyclo[3.2.1]octane] | A (A indicates 80-100% mortality)
N#CC1(c2cncc(Cl)c2)CC2CCC(C1)N2CCCC(F)(F)F (stereo not shown) [Compound 160] | A (A indicates 80-100% mortality)
COc1cncc(C2(C#N)CC3CCC(C2)N3CC(F)(F)F)c1 (stereo not shown) [Compound 161] | A (A indicates 80-100% mortality)
CCOC(=O)c1ccc(N2C3CCC2CC(C#N)(c2cncc(Cl)c2)C3)cc1 (stereo not shown) [Compound 162] | C (C indicates less than 40% mortality)
N#CC1(c2cnc(F)c(Cl)c2)CC2CCC(C1)N2CC(F)(F)F (stereo not shown) [Compound 163] | C (C indicates less than 40% mortality)
CC(=O)Nc1cncc(C2(C#N)CC3CCC(C2)N3C)c1 (stereo not drawn) [Compound 165, exo-3-(5-acetylamidopyrid-3-yl)-endo-3-cyano-8-methyl-8-azabicyclo[3.2.1]octane] | A (A indicates 80-100% mortality)
COc1cncc(C2(C#N)CC3CCC(C2)N3CC#N)c1 (stereo not shown) [Compound 166] | A (A indicates 80-100% mortality)
N#CC1(c2cncc(Cl)c2)CC2CCC(C1)N2c1nc(CCl)ns1 (stereo not shown) [Compound 167] | A (A indicates 80-100% mortality)
N#CC1(c2cncc(Cl)c2)CC2CCC(C1)N2c1ncc(Cl)s1 (stereo not drawn) [Compound 168, exo-3-(5-chloropyrid-3-yl)-endo-3-cyano-8-(5-chlorothiazol-2-yl)-8-azabicyclo[3.2.1]octane] | A (A indicates 80-100% mortality)
N#CN1C2CCC1CC(C#N)(c1cncc(Cl)c1)C2 (stereo not drawn) [Compound 169, exo-3-(5-chloropyrid-3-yl)-endo-3-cyano-8-cyano-8-azabicyclo[3.2.1]octane] | A (A indicates 80-100% mortality)
N#CC1(c2cncc(Cl)c2)CC2CCC(C1)N2c1ccc(C(=O)O)cc1 (stereo not shown) [Compound 170] | B (B indicates 40-79% mortality)
C=COC(=O)N1C2CCC1CC(C#N)(c1cncc(OC)c1)C2 (stereo not shown) [Compound 171] | A (A indicates 80-100% mortality)

SMILES | Score (grading of mortality)
COc1cncc(C2(C#N)CC3CCC(C2)N3)c1 (stereo not shown) [Compound 172] | A (A indicates 80-100% mortality)
N#CC1(c2cncc(Cl)c2)CC2CCC(C1)N2c1ccc(Cl)cc1 (stereo not shown) [Compound 173] | A (A indicates 80-100% mortality)
CN1C2CCC1CC(C#N)(c1cncc(C(F)(F)F)c1)C2 (stereo not drawn) [Compound 174, exo-3-(5-trifluoromethylpyrid-3-yl)-endo-3-cyano-8-methyl-8-azabicyclo[3.2.1]octane] | A (A indicates 80-100% mortality)
C=CC(C)(c1ccccc1)N1C2CCC1CC(C#N)(c1cncc(Cl)c1)C2 (stereo not drawn) [Compound 175, exo-3-(5-chloropyrid-3-yl)-endo-3-cyano-8-(2-phenylbut-3-en-2-yl)-8-azabicyclo[3.2.1]octane] | A (A indicates 80-100% mortality)
CC(CO)(c1ccccc1)N1C2CCC1CC(C#N)(c1cncc(Cl)c1)C2 (stereo not drawn) [Compound 176, exo-3-(5-chloropyrid-3-yl)-endo-3-cyano-8-(2-phenyl-3-hydroxyprop-2-yl)-8-azabicyclo[3.2.1]octane] | A (A indicates 80-100% mortality)
N#CC1(c2cncc(C(F)(F)F)c2)CC2CCC(C1)N2C=O (stereo not shown) [Compound 177] | A (A indicates 80-100% mortality)
CC(=O)OCC(C)(c1ccccc1)N1C2CCC1CC(C#N)(c1cncc(Cl)c1)C2 (stereo not drawn) [Compound 178, exo-3-(5-chloropyrid-3-yl)-endo-3-cyano-8-(2-phenyl-3-acetoxyprop-2-yl)-8-azabicyclo[3.2.1]octane] | A (A indicates 80-100% mortality)
CC(F)(CN1C2CCC1CC(C#N)(c1cncc(Cl)c1)C2)c1ccccc1 (stereo not drawn) [Compound 179, exo-3-(5-chloropyrid-3-yl)-endo-3-cyano-8-(2-fluoro-2-phenylprop-1-yl)-8-azabicyclo[3.2.1]octane] | A (A indicates 80-100% mortality)
CC(C)CC(C)(C)CCN1C2CCC1CC(C#N)(c1cncc(Cl)c1)C2 (stereo not shown) [Compound 180] | A (A indicates 80-100% mortality)
C=COC(=O)N1C2CCC1CC(C#N)(c1cncc(Br)c1)C2 (stereo not shown) [Compound 181] | A (A indicates 80-100% mortality)
N#CC1(c2cncc(Cl)c2)CC2CCC(C1)N2c1ncccn1 (stereo not shown) [Compound 182] | A (A indicates 80-100% mortality)
C=COC(=O)N1C2CCC1CC(C#N)(c1cncc(C(F)(F)F)c1)C2 (stereo not shown) [Compound 183] | A (A indicates 80-100% mortality)
N#CC1(c2cncc(C(F)(F)F)c2)CC2CCC(C1)N2 (stereo not shown) [Compound 184] | A (A indicates 80-100% mortality)
C=COC(=O)N1C2CCC1CC(C#N)(c1cccnc1)C2 (stereo not drawn) [Compound 185, exo-3-(Pyrid-3-yl)-endo-3-cyano-8-(vinyloxycarbonyl)-8-azabicyclo[3.2.1]octane] | A (A indicates 80-100% mortality)
N#CC1(c2cncc(C(F)(F)F)c2)CC2CCC(C1)N2Cc1cccc(Cl)c1 (stereo not shown) [Compound 186] | A (A indicates 80-100% mortality)
N#CC1(c2cncc(Cl)c2)CC2CCC(C1)N2c1ccnc(Cl)n1 (stereo not shown) [Compound 187] | C (C indicates less than 40% mortality)
N#CC1(c2cncc(Cl)c2)CC2CCC(C1)N2c1ccc(C(F)(F)F)cc1 (stereo not shown) [Compound 188] | A (A indicates 80-100% mortality)
CN1C2CCC1CC(C#N)(c1cncc(-n3cccc3)c1)C2 (stereo not drawn) [Compound 189, exo-3-(5-(pyrrol-1-yl)pyrid-3-yl)-endo-3-cyano-8-methyl-8-azabicyclo[3.2.1]octane] | A (A indicates 80-100% mortality)
